Measured values: ChEMBL document CHEMBL4368932 (Bioorg Med Chem, 2019)
One block for each molecule: values may come before it. Active and inactive are the calls of the source. The rule behind the calls is not given here.

Key:
[1] = molecular target: T1, Phosphatidylinositol 4,5-bisphosphate 3-kinase catalytic subunit delta isoform (Homo sapiens) (UniProt O00329); assay: Inhibition of recombinant human PI3Kdelta at 0.1 uM using PIP2 as substrate after 35 to 40 mins by HTRF assay relative to control
T1 sequence (whole entry): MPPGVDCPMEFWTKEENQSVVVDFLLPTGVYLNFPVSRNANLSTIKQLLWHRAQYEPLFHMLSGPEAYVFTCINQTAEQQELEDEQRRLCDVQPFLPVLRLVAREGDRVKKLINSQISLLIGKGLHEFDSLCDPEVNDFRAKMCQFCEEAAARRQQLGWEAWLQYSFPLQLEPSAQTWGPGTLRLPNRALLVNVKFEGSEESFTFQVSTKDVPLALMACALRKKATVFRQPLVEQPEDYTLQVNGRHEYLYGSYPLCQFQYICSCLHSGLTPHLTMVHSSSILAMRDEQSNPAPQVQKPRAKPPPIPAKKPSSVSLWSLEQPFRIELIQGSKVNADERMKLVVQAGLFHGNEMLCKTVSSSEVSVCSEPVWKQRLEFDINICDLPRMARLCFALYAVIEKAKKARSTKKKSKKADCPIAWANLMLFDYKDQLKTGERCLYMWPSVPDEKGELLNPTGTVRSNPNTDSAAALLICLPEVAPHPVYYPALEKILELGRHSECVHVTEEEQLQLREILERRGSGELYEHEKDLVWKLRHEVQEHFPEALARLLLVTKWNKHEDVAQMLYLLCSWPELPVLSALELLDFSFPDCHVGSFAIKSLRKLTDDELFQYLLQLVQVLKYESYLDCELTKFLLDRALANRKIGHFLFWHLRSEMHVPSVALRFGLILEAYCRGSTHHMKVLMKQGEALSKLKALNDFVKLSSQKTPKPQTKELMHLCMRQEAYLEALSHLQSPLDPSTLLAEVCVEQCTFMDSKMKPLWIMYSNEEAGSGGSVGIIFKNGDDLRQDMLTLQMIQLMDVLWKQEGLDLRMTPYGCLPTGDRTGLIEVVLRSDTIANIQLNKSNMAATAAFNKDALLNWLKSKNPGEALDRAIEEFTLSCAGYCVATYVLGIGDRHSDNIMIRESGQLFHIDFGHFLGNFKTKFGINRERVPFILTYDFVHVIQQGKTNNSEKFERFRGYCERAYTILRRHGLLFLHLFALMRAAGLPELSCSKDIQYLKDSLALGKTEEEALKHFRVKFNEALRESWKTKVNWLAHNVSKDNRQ

[2] = molecular target: T2, Phosphatidylinositol 4,5-bisphosphate 3-kinase catalytic subunit delta isoform (Homo sapiens, UniProt O00329); assay: Inhibition of recombinant human PI3Kdelta using PIP2 as substrate after 35 to 40 mins by HTRF assay
T2 sequence (O00329 whole entry): T1 sequence (whole entry)

[3] = molecular target: Phosphatidylinositol 4,5-bisphosphate 3-kinase catalytic subunit alpha isoform (Homo sapiens, UniProt P42336); assay: Inhibition of human PI3Kalpha using phosphatidyl inositol as substrate after 3 hrs by Kinase-Glo Plus reagent-based luminescence assay
[4] = molecular target: Phosphatidylinositol 4,5-bisphosphate 3-kinase catalytic subunit beta isoform (Homo sapiens, UniProt P42338); assay: Inhibition of recombinant human PI3Kbeta using PIP2 as substrate after 35 to 40 mins by HTRF assay
[5] = molecular target: Phosphatidylinositol 4,5-bisphosphate 3-kinase catalytic subunit gamma isoform (Homo sapiens, UniProt P48736); assay: Inhibition of recombinant human PI3Kgamma using PIP2 as substrate after 35 to 40 mins by HTRF assay
[6] = test system: B-cell; assay: Antiproliferative activity against anti-IgM antibody-stimulated BALB/c mouse B cells after 2 days by Alamar Blue reagent-based assay; details: 48 h
[7] = Intrinsic clearance in CD1 mouse liver microsomes at 0.2 uM up to 45 mins in presence of NADPH by LC-MS/MS analysis; format: ADME, Microsome; details: read-out: CLH
[8] = Aqueous solubility of compound at pH 6.8 Japanese Pharmacopoeia 2nd fluid for disintegration test at 130 uM after 20 hrs by liquid chromatography method; format: physicochemical
[9] = Permeability of the compound at 50 uM after 2 hrs by PAMPA; format: ADME; details: read-out: permeability
[10] = molecular target: T3, Cytochrome P450 1A2 (Homo sapiens, UniProt P05177); assay: Inhibition of CYP1A2 in human liver microsomes at 5 uM using phenacetin as substrate after 20 mins by LC-MS/MS analysis; format: ADME
T3 sequence (P05177 whole entry): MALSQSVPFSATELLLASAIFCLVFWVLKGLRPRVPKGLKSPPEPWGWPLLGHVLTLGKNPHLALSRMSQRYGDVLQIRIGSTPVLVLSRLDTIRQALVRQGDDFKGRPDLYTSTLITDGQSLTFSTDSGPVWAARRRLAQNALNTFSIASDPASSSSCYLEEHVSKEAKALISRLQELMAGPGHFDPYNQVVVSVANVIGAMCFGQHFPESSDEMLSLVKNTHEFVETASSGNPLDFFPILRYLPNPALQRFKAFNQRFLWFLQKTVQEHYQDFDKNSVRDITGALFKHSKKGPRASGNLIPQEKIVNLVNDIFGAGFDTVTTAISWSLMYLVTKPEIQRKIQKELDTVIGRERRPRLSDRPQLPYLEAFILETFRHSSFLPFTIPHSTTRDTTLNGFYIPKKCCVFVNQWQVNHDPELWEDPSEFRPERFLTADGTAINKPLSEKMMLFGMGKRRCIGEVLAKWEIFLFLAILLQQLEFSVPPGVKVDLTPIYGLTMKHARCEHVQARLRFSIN

[11] = molecular target: T4, Cytochrome P450 2C8 (Homo sapiens, UniProt P10632); assay: Inhibition of CYP2C8 in human liver microsomes at 5 uM using amodiaquine as substrate after 20 mins by LC-MS/MS analysis; format: ADME
T4 sequence (P10632 whole entry): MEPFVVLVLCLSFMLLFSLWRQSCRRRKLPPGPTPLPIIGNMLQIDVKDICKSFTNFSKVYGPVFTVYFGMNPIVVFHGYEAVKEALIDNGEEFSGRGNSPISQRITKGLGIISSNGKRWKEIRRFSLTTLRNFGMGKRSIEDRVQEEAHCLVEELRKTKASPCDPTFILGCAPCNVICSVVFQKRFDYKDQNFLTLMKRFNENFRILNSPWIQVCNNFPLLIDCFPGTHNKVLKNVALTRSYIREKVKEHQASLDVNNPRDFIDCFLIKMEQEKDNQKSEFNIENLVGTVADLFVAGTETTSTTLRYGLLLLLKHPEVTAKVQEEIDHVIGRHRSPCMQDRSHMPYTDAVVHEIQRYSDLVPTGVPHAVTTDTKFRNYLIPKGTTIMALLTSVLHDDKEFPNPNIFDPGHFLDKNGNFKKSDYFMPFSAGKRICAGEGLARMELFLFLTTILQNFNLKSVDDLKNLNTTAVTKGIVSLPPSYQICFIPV

[12] = molecular target: Cytochrome P450 2C9 (Homo sapiens, UniProt P11712); assay: Inhibition of CYP2C9 in human liver microsomes at 5 uM using diclofenac as substrate after 20 mins by LC-MS/MS analysis; format: ADME
[13] = molecular target: Cytochrome P450 2C19 (Homo sapiens, UniProt P33261); assay: Inhibition of CYP2C19 in human liver microsomes at 5 uM using S-mephenytoin as substrate after 20 mins by LC-MS/MS analysis; format: ADME
[14] = molecular target: Cytochrome P450 2D6 (Homo sapiens, UniProt P10635); assay: Inhibition of CYP2D6 in human liver microsomes at 5 uM using dextromethorphan as substrate after 20 mins by LC-MS/MS analysis; format: ADME
[15] = molecular target: Cytochrome P450 3A4 (Homo sapiens, UniProt P08684); assay: Inhibition of CYP3A4 in human liver microsomes at 5 uM using midazolam as substrate after 20 mins by LC-MS/MS analysis; format: ADME
[16] = Total clearance in BALB/c mouse at 1 mg/kg, iv or 3 mg/kg, po by LC-MS/MS analysis; format: ADME, organism-based; details: in vivo
[17] = Volume of distribution at steady state in BALB/c mouse at 1 mg/kg, iv or 3 mg/kg, po by LC-MS/MS analysis; format: ADME, organism-based; details: in vivo, read-out: Vdss
[18] = Half life in BALB/c mouse at 1 mg/kg, iv or 3 mg/kg, po by LC-MS/MS analysis; format: ADME, organism-based; details: in vivo
[19] = Cmax in BALB/c mouse at 1 mg/kg, iv or 3 mg/kg, po by LC-MS/MS analysis; format: ADME, organism-based; details: in vivo
[20] = Tmax in BALB/c mouse at 1 mg/kg, iv or 3 mg/kg, po by LC-MS/MS analysis; format: ADME, organism-based; details: in vivo
[21] = AUC (24 hrs) in BALB/c mouse at 3 mg/kg, po by LC-MS/MS analysis; format: ADME, organism-based; set-up: dose 3 mg/kg, time < 24 hr, route oral; details: in vivo
[22] = Unbound fraction in mouse plasma at 2 uM incubated for 6 hrs by LC-MS/MS analysis; format: ADME, cell-free
[23] = Oral bioavailability in BALB/c mouse at 3 mg/kg by LC-MS/MS analysis; format: ADME, organism-based; details: in vivo
[24] = test system: Mus musculus; assay: Inhibition of TNP-Ficoll induced antibody production in po dosed BALB/c mouse administered twice daily measured on day 4 by ELISA; format: functional, organism-based
[25] = test system: Mus musculus; assay: Inhibition of TNP-Ficoll induced antibody production in BALB/c mouse at 2 mg/kg, po qd measured on day 4 by ELISA; format: functional, organism-based
[26] = Inhibition of PI3K in rat Rat-1 cells assessed as decrease in AKT 1/2 phosphorylation at ser473 residues after 1 hr by AlphaScreen assay; format: cell-based

Sequence of Phosphatidylinositol 4,5-bisphosphate 3-kinase catalytic subunit gamma isoform (P48736 whole entry, canonical isoform): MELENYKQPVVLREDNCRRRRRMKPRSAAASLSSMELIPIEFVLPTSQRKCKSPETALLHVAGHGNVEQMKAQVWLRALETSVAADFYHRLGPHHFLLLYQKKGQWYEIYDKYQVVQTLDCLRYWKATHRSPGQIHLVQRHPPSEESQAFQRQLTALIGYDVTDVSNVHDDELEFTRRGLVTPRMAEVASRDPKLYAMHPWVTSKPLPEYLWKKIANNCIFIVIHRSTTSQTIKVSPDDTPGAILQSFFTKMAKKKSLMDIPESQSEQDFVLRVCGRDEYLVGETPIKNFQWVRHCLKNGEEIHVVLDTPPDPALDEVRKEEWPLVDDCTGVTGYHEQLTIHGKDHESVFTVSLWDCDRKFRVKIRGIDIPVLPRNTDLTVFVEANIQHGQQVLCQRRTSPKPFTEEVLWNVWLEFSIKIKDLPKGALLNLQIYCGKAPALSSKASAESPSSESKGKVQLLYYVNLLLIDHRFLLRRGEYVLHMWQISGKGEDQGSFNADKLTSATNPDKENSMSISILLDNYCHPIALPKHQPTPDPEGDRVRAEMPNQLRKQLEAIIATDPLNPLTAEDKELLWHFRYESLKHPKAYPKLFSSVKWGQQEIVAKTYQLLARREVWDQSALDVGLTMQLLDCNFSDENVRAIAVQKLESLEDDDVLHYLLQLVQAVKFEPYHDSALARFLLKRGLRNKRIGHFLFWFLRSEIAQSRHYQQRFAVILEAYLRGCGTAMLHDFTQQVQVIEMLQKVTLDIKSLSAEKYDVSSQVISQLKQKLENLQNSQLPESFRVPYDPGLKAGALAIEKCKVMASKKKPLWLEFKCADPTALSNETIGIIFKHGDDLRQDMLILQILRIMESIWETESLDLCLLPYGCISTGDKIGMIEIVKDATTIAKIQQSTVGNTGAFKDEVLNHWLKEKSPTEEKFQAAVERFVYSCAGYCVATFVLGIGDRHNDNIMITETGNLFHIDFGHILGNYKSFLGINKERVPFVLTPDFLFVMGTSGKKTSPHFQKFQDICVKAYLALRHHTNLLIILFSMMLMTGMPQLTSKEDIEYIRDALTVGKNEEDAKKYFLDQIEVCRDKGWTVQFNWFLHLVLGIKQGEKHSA
Sequence of Phosphatidylinositol 4,5-bisphosphate 3-kinase catalytic subunit beta isoform (P42338 whole entry, canonical isoform): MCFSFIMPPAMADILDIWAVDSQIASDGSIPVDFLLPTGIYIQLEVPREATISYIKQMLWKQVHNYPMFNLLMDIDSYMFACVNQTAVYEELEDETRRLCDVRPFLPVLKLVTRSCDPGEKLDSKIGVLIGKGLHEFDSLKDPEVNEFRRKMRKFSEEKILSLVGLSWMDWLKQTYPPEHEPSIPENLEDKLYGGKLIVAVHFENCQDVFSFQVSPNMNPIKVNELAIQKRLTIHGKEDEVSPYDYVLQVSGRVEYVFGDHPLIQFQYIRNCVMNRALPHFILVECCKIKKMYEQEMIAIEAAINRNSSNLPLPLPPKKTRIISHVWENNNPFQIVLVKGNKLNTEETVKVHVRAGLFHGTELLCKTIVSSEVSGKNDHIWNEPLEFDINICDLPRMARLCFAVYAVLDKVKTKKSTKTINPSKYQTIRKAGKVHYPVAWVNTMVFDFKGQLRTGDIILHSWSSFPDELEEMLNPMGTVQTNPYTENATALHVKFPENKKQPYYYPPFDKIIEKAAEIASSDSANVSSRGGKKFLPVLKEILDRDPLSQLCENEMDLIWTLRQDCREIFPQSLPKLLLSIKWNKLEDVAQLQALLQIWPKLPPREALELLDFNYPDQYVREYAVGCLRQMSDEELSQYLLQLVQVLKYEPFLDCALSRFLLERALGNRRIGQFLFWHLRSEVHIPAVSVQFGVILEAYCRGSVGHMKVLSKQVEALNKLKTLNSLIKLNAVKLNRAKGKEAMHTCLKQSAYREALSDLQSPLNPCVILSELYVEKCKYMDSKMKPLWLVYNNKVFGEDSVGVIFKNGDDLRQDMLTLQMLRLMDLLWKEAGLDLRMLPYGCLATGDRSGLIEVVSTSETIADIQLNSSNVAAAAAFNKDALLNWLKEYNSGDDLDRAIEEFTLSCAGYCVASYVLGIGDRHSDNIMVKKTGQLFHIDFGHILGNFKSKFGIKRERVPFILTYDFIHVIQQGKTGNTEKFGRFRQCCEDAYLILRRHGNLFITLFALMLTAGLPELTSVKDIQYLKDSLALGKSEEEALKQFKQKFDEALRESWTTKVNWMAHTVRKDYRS
Sequence of Phosphatidylinositol 4,5-bisphosphate 3-kinase catalytic subunit alpha isoform (P42336 whole entry, canonical isoform): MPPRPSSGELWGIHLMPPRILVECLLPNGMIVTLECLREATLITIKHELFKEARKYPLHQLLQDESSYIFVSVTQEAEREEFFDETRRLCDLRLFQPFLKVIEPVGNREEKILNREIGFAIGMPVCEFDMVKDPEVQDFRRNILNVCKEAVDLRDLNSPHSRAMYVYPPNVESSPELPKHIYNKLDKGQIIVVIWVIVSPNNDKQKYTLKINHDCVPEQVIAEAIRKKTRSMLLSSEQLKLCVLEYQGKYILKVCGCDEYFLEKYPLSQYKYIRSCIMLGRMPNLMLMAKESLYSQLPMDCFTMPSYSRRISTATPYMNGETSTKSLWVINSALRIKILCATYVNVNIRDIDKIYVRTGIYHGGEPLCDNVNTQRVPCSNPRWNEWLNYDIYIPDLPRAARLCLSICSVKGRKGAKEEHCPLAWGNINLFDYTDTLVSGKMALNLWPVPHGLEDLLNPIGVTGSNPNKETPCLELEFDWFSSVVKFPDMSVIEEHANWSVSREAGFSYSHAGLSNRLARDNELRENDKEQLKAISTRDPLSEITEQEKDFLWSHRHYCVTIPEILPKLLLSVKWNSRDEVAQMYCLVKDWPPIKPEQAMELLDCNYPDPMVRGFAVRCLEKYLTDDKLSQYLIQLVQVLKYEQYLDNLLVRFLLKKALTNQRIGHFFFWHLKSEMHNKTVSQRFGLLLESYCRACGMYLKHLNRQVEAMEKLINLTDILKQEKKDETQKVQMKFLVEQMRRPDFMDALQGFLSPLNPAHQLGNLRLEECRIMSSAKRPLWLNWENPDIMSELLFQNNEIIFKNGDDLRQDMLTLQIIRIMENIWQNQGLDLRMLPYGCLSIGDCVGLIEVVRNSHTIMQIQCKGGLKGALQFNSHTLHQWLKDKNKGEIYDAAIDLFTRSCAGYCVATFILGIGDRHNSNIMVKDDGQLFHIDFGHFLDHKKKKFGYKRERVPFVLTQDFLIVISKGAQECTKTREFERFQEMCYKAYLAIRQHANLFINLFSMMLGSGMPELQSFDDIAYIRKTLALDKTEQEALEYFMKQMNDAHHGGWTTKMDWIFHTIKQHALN
Sequence of Cytochrome P450 2C19 (P33261 whole entry): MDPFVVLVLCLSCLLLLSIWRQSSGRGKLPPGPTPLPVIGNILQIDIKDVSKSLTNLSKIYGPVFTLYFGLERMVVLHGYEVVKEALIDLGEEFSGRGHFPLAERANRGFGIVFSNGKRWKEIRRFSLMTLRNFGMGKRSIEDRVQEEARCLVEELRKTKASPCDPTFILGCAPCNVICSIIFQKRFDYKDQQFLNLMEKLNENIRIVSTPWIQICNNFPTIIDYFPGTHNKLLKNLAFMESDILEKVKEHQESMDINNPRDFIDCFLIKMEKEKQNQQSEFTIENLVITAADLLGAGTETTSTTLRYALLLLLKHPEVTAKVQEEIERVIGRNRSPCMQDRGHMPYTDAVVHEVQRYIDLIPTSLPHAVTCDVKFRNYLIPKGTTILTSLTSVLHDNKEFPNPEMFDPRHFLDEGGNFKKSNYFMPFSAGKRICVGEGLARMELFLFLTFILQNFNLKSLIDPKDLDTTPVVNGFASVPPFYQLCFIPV
Sequence of Cytochrome P450 2C9 (P11712 whole entry): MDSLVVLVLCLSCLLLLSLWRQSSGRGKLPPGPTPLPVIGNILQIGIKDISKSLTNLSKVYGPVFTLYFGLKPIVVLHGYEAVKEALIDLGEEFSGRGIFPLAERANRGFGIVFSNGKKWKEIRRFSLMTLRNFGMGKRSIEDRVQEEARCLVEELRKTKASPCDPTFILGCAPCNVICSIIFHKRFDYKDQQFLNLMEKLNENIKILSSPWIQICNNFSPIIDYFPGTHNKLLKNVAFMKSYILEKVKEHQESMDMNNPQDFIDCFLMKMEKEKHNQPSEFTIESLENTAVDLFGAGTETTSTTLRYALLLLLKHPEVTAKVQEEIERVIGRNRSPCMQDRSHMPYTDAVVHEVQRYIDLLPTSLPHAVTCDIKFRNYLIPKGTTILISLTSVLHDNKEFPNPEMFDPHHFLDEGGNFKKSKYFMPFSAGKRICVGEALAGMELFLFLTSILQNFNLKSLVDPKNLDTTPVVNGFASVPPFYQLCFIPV
Sequence of Cytochrome P450 3A4 (P08684 whole entry): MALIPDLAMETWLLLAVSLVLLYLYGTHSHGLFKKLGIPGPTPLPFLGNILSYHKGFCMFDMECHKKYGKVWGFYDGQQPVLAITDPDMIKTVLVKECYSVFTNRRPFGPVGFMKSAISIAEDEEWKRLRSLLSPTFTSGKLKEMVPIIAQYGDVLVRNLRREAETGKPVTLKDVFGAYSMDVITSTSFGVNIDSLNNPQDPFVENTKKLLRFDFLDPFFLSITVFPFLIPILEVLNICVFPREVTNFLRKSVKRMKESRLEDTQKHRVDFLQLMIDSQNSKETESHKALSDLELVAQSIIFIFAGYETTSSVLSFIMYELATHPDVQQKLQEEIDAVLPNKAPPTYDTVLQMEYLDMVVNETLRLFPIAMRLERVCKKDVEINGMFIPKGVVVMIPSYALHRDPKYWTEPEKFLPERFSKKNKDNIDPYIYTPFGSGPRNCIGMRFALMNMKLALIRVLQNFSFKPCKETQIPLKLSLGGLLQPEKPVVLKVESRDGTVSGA

Compound: COc1ncc(N2CCc3ncnc(Nc4ccccc4)c3C2)cc1C
inhibition [1]: 14%

Compound: COCC(=O)N1CCC(Nc2cc(-c3ncnc4c3CN(c3cnc(OC)c(C)c3)CC4)ccn2)CC1
IC50 [2]: 0.0092 µM
IC50 [3]: 9.8 µM
IC50 [4]: > 10 µM
IC50 [5]: > 10 µM
IC50 [6]: 0.0079 µM
CLint scaled at 0.2 µM [7]: 580 mL/min/kg

Compound: COc1ncc(N2CCc3ncnc(-c4ccnc(NC5CCN(C)CC5)c4)c3C2)cc1C
IC50 [2]: 0.007 µM
IC50 [3]: > 10 µM
IC50 [4]: > 10 µM
IC50 [5]: > 10 µM
IC50 [6]: 0.0032 µM
CLint scaled at 0.2 µM [7]: 81 mL/min/kg
solubility at 20 h, 130 µM [8]: > 100 µM
Papp at 2 h, 50 µM [9]: 9.3 ×10⁻⁶ cm/s
inhibition (INH) [10]: Not Active
inhibition (INH) [11]: Not Active
inhibition (INH) [12]: Not Active
inhibition (INH) [13]: Not Active
inhibition (INH) [14]: Not Active
inhibition (INH) [15]: Not Active
clearance [16]: 21.9 mL/min/kg
Vd [17]: 7.17 L/kg
half-life [18]: 4 h
Cmax [19]: 160 ng/mL
Tmax [20]: 6 h
AUC at 24 h [21]: 2210 ng·h/mL
fraction unbound at 6 h, 2 µM [22]: 0.3
bioavailability [23]: 97%
inhibition [24]: Dose-dependent effect
inhibition [25]: Active

Compound: COc1ncc(N2CCc3ncnc(-c4ccnc(NCc5ccccc5)c4)c3C2)cc1C
IC50 [2]: 0.087 µM

Compound: COc1ncc(N2CCc3ncnc(O[C@H]4CCN(C(=O)C5CCOCC5)C4)c3C2)cc1C
IC50 [26]: 0.153 µM
IC50 [6]: 0.024 µM
half-life [18]: 0.67 h

Compound: COc1ncc(N2CCc3ncnc(-c4ccnc(NC5CCNCC5)c4)c3C2)cc1C
IC50 [2]: 0.025 µM
IC50 [3]: > 10 µM
IC50 [4]: > 10 µM
IC50 [5]: > 10 µM
IC50 [6]: 0.024 µM

Compound: COc1ncc(N2CCc3ncnc(-c4ccnc(NC5CCN(S(C)(=O)=O)CC5)c4)c3C2)cc1C
IC50 [2]: 0.0096 µM
IC50 [3]: 1.4 µM
IC50 [6]: 0.012 µM
CLint scaled at 0.2 µM [7]: > 1000 mL/min/kg

Compound: COc1ncc(N2CCc3ncnc(-c4ccnc(N[C@H]5CC[C@H](O)CC5)c4)c3C2)cc1C
IC50 [2]: 0.027 µM
IC50 [3]: 7.3 µM
IC50 [6]: 0.024 µM

Continued, in another order:

IC50 [2]: 0.039 µM
Compound: COCCNc1cc(-c2ncnc3c2CN(c2cnc(OC)c(C)c2)CC3)ccn1

IC50 [2]: 0.011 µM
IC50 [3]: 5.8 µM
IC50 [4]: 5.4 µM
IC50 [5]: > 10 µM
Compound: COc1ncc(N2CCc3ncnc(-c4ccnc(NC5CCOCC5)c4)c3C2)cc1C
IC50 [6]: 0.0071 µM

IC50 [2]: 0.028 µM
IC50 [3]: 7.5 µM
IC50 [4]: 8.9 µM
Compound: COc1ncc(N2CCc3ncnc(-c4ccnc(NCC5CCOCC5)c4)c3C2)cc1C
IC50 [6]: 0.017 µM
